# Results: paper PMC3284191 (Journal of Agricultural and Food Chemistry, 2012)
# Molecular target: β-galactosidase LacZ from L. bulgaricus (nontagged) (Lactobacillus delbrueckii, UniProt Q1G9Z4)
# Assay: inhibition of oNPG hydrolysis, nonlinear regression
# Format: biochemical
# Settings: read-out: nontagged LacZ; substrate oNPG; 50 mM sodium phosphate, pH 6.5, 30 °C; competitive
# Sequence of β-galactosidase LacZ from L. bulgaricus (nontagged) (Q1G9Z4 2-1008): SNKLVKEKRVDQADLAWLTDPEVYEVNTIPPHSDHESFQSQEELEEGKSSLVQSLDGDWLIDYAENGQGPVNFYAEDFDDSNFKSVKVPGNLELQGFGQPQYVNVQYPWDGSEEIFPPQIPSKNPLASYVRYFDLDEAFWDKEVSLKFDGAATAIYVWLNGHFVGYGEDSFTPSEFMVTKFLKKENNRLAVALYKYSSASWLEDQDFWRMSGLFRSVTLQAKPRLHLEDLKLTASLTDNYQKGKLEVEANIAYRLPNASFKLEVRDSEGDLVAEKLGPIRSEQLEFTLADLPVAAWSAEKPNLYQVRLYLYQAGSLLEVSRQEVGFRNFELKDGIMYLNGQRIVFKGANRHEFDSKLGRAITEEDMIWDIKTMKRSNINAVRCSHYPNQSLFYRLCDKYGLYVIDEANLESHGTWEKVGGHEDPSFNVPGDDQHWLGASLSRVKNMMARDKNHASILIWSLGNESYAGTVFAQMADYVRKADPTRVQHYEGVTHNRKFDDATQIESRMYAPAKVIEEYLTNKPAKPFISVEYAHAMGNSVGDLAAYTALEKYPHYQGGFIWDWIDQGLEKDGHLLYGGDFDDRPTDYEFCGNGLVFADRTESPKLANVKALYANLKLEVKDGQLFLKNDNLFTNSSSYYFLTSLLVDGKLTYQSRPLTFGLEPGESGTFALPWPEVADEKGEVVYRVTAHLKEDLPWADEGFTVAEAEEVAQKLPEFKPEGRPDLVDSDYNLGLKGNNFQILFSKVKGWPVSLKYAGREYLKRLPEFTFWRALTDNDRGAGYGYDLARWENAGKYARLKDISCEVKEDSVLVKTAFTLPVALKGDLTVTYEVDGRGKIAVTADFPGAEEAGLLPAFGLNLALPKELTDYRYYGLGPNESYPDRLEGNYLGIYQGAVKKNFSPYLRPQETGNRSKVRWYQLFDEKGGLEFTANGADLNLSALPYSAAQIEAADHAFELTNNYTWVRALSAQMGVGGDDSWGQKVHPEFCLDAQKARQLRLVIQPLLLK
smiles,measurement,value
OC[C@H]1OC(O)[C@H](O)[C@@H](O)[C@H]1O (stereo partly drawn) [D-galactose],Ki,9.52 ± 1.54 mM
